This passage reports IC50 results from US9051270B2, “Pyridone amides as modulators of sodium channels” (Vertex Pharmaceuticals Incorporated, priority 2013, dated 2015).

SMILES strings stand for the structures.

The target in this experiment is human Nav1.8 (Homo sapiens (Human), UniProt Q9Y5Y9). As to the kind of experiment: E-VIPR optical membrane potential assay with electrical stimulation. The class given is cell-based. As to conditions: HEK cells expressing human Nav1.8. The source says: Sodium channels are voltage-dependent proteins that can be activated by inducing membrane voltage changes by applying electric fields. […] The instrument comprises a microtiter plate handler, an optical system for exciting the coumarin dye while simultaneously recording the coumarin and oxonol emissions, a waveform generator, a current- or voltage-controlled amplifier, and a device for inserting electrodes in well. Under integrated computer control, this instrument passes user-programmed electrical stimulus protocols to cells within the wells of the microtiter plate.
Chain of human Nav1.8 (Q9Y5Y9 whole entry): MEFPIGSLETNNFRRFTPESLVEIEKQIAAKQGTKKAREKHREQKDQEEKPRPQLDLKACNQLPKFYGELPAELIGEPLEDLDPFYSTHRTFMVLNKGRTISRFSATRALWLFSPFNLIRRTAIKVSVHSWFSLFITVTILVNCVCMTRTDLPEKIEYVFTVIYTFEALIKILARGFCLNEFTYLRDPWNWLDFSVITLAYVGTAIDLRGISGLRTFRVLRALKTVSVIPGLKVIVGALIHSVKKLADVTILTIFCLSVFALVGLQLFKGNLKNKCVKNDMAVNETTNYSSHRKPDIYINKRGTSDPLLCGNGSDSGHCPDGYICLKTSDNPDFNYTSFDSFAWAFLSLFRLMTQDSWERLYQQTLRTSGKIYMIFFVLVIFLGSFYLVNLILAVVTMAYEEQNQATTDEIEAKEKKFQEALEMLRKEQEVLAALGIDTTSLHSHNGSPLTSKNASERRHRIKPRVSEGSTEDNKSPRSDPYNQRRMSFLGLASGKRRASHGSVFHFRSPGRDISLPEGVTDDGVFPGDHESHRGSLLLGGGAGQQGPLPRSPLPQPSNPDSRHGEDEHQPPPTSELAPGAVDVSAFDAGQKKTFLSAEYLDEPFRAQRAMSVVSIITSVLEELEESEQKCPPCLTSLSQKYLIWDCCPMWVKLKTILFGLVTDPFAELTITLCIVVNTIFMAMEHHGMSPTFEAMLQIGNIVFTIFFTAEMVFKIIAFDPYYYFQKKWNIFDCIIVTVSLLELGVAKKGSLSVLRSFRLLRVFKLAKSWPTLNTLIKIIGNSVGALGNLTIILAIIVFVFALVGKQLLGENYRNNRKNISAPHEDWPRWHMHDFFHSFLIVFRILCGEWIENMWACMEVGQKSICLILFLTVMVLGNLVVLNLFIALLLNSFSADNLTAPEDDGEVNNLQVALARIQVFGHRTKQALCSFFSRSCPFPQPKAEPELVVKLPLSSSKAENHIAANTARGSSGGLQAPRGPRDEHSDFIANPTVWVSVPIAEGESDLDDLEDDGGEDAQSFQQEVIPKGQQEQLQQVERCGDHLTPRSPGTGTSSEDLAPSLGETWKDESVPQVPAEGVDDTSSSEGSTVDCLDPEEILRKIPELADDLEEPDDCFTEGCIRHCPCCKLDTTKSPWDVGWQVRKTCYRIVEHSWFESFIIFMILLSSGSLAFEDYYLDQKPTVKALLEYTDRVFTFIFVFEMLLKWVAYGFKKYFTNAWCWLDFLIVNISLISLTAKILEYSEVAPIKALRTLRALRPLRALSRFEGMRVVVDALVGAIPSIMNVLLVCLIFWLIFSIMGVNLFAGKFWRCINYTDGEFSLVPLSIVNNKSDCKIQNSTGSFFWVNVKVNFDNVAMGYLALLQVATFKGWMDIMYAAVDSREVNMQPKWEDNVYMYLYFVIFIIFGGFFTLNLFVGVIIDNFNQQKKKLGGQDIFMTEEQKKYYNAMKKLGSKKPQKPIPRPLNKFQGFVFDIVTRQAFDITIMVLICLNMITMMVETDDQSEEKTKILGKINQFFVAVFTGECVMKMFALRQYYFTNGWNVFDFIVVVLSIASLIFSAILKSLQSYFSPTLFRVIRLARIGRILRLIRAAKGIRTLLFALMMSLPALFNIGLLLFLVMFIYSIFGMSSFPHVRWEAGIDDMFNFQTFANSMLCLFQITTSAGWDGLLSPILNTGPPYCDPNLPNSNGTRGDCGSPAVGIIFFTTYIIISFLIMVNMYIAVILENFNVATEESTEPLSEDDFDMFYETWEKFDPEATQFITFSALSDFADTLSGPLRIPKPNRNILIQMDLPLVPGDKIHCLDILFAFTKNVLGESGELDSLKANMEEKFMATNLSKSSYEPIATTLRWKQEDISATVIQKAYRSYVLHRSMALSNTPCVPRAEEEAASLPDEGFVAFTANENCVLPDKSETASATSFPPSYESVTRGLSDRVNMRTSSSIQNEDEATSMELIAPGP
24 hours before the assay on E-VIPR, HEK cells expressing human Nav1.8 were seeded in 384-well poly-lysine coated plates at 15,000-20,000 cells per well. […] Cells were grown in vented cap flasks, in 90% humidity and 5% CO2.
To make the solution added volume of 10% Pluronic F127 stock equal to volumes of CC2-DMPE+DiSBAC6(3). The order of preparation was first mixing Pluronic and CC2-DMPE, then adding DiSBAC6(3) while vortexing, then adding Bath1+β-Cyclodextrin.
1) Pre-spotted compounds (in neat DMSO) into compound plates. […] Final compound plate volume was 80 μL (80-fold intermediate dilution from 1 μL DMSO spot; 160-fold final dilution after transfer to cell plate).
2) Prepared Hexyl Dye Solution.
3) Prepared cell plates. On the day of the assay, medium was aspirated and cells were washed three times with 100 μL of Bath1 Solution, maintaining 25 μL residual volume in each well.
4) Dispensed 25 μL per well of Hexyl Dye Solution into cell plates. Incubated for 20-35 minutes at room temp or ambient conditions.
5) Dispensed 80 μL per well of Bath1 into compound plates. Acid Yellow-17 (1 mM) was added and Potassium Chloride was altered from 4.5 to 20 mM depending on the NaV subtype and assay sensitivity.
6) Washed cell plates three times with 100 μL per well of Bath1, leaving 25 μL of residual volume. Then transferred 25 uL per well from Compound Plates to Cell Plates. Incubated for 20-35 minutes at room temp/ambient condition.
7) Read Plate on E-VIPR. […] A pre-stimulus recording was performed for 0.5 seconds to obtain the un-stimulated intensities baseline. The stimulatory waveform was followed by 0.5 seconds of post-stimulation recording to examine the relaxation to the resting state.
Data was analyzed and reported as normalized ratios of emission intensities measured in the 460 nm and 580 nm channels. The response as a function of time was reported as the ratios obtained using the following formula: […]
The data was further reduced by calculating the initial (Ri) and final (Rf) ratios. These were the average ratio values during part or all of the pre-stimulation period, and during sample points during the stimulation period. The response to the stimulus R=Rf/Ri was then calculated and reported as a function of time.
Control responses were obtained by performing assays in the presence of a compound with the desired properties (positive control), such as tetracaine, and in the absence of pharmacological agents (negative control). Responses to the negative (N) and positive (P) controls were calculated as above. The compound antagonist activity A is defined as:
[formula] where R is the ratio response of the test compound
The term IC50 denotes the concentration needed to halve the response being measured. High values mean weaker potency in that assay, low ones greater potency in that assay. As to `O=C(Nc1cc[nH]c(=O)c1)c1cc(OC(F)(F)F)ccc1Oc1ccccc1` [Compound 41, N-(2-oxo-1,2-dihydropyridin-4-yl)-2-phenoxy-5-(trifluoromethoxy)benzamide], the IC50 came out at 260 nM.
Next, `COc1cc(F)ccc1Oc1ccc(OC(F)(F)F)cc1C(=O)Nc1cc[nH]c(=O)c1` [Compound 42, 2-(4-fluoro-2-methoxyphenoxy)-N-(2-oxo-1,2-dihydropyridin-4-yl)-5-(trifluoromethoxy)benzamide]: 68 nM; `O=C(Nc1cc[nH]c(=O)c1)c1c(Oc2ccc(F)cc2)cccc1C(F)(F)F` [Compound 43, 2-(4-fluorophenoxy)-N-(2-oxo-1,2-dihydropyridin-4-yl)-6-(trifluoromethyl)benzamide]: 380 nM.
Then `COc1ccc(Oc2ccc(C(F)(F)F)cc2C(=O)Nc2cc[nH]c(=O)c2)cc1` [Compound 45, 2-(4-methoxyphenoxy)-N-(2-oxo-1,2-dihydropyridin-4-yl)-5-(trifluoromethyl)benzamide], with 64 nM; and `CCOc1ccccc1Oc1ccc(C(F)(F)F)cc1C(=O)Nc1cc[nH]c(=O)c1` [Compound 46, 2-(2-ethoxyphenoxy)-N-(2-oxo-1,2-dihydropyridin-4-yl)-5-(trifluoromethyl)benzamide], with 64 nM.
Next, `COc1cc(C)ccc1Oc1ccc(C(F)(F)F)cc1C(=O)Nc1cc[nH]c(=O)c1` [Compound 47, 2-(2-methoxy-4-methylphenoxy)-N-(2-oxo-1,2-dihydropyridin-4-yl)-5-(trifluoromethyl)benzamide]: 135 nM.
Regarding `COc1cccc(F)c1Oc1ccc(C(F)(F)F)cc1C(=O)Nc1cc[nH]c(=O)c1` [Compound 48, 2-(2-fluoro-6-methoxyphenoxy)-N-(2-oxo-1,2-dihydropyridin-4-yl)-5-(trifluoromethyl)benzamide], the IC50 was determined as 2700 nM.
Take `COc1ccc(Oc2ccc(C(F)(F)F)cc2C(=O)Nc2cc[nH]c(=O)c2)c(Cl)c1` [Compound 49, 2-(2-chloro-4-methoxyphenoxy)-N-(2-oxo-1,2-dihydropyridin-4-yl)-5-(trifluoromethyl)benzamide]: the IC50 came to 24 nM.
Next, `Cc1cc(Cl)ccc1Oc1ccc(C(F)(F)F)cc1C(=O)Nc1cc[nH]c(=O)c1` [Compound 50, 2-(4-chloro-2-methylphenoxy)-N-(2-oxo-1,2-dihydropyridin-4-yl)-5-(trifluoromethyl)benzamide]: 19 nM; `O=C(Nc1cc[nH]c(=O)c1)c1cc(C(F)(F)F)ccc1Oc1ccc(Cl)cc1F` [Compound 51, 2-(4-chloro-2-fluorophenoxy)-N-(2-oxo-1,2-dihydropyridin-4-yl)-5-(trifluoromethyl)benzamide]: 87 nM.
The molecule `COc1ccc(F)cc1Oc1ccc(C(F)(F)F)cc1C(=O)Nc1cc[nH]c(=O)c1` [Compound 52, 2-(5-fluoro-2-methoxyphenoxy)-N-(2-oxo-1,2-dihydropyridin-4-yl)-5-(trifluoromethyl)benzamide] registered an IC50 of 94 nM.
Then `CCCOc1ccc(Oc2ccc(C(F)(F)F)cc2C(=O)Nc2cc[nH]c(=O)c2)cc1` [Compound 53, N-(2-oxo-1,2-dihydropyridin-4-yl)-2-(4-propoxyphenoxy)-5-(trifluoromethyl)benzamide], with 47 nM.
Then `COc1c(F)cccc1Oc1ccc(C(F)(F)F)cc1C(=O)Nc1cc[nH]c(=O)c1` [Compound 54, 2-(3-fluoro-2-methoxyphenoxy)-N-(2-oxo-1,2-dihydropyridin-4-yl)-5-(trifluoromethyl)benzamide], with 30 nM; and `COc1ccc(Oc2ccc(C(F)(F)F)cc2C(=O)Nc2cc[nH]c(=O)c2)c(F)c1` [Compound 55, 2-(2-fluoro-4-methoxyphenoxy)-N-(2-oxo-1,2-dihydropyridin-4-yl)-5-(trifluoromethyl)benzamide], with 70 nM.
Then `Cc1ccc(F)cc1Oc1ccc(C(F)(F)F)cc1C(=O)Nc1cc[nH]c(=O)c1` [Compound 56, 2-(5-fluoro-2-methylphenoxy)-N-(2-oxo-1,2-dihydropyridin-4-yl)-5-(trifluoromethyl)benzamide], with 69 nM; and `COc1cc(F)cc(Oc2ccc(C(F)(F)F)cc2C(=O)Nc2cc[nH]c(=O)c2)c1` [Compound 57, 2-(3-fluoro-5-methoxyphenoxy)-N-(2-oxo-1,2-dihydropyridin-4-yl)-5-(trifluoromethyl)benzamide], with 6900 nM; and `O=C(Nc1cc[nH]c(=O)c1)c1cc(C(F)(F)F)ccc1Oc1ccc(Cl)cc1` [Compound 58, 2-(4-chlorophenoxy)-N-(2-oxo-1,2-dihydropyridin-4-yl)-5-(trifluoromethyl)benzamide], with 54 nM.
Regarding `COc1ccc(Oc2ccc(C(F)(F)F)cc2C(=O)Nc2cc[nH]c(=O)c2)cc1F` [Compound 59, 2-(3-fluoro-4-methoxyphenoxy)-N-(2-oxo-1,2-dihydropyridin-4-yl)-5-(trifluoromethyl)benzamide], the midpoint of inhibition, the IC50, lay at 32 nM.
Molecule `Cc1cc(F)ccc1Oc1ccc(C(F)(F)F)cc1C(=O)Nc1cc(Cl)[nH]c(=O)c1` [Compound 60, N-(6-chloro-2-oxo-1,2-dihydropyridin-4-yl)-2-(4-fluoro-2-methylphenoxy)-5-(trifluoromethyl)benzamide] returned an IC50 of 126 nM.
For `Cc1cc(NC(=O)c2cc(C(F)(F)F)ccc2Oc2ccc(F)cc2C)cc(=O)[nH]1` [Compound 61, 2-(4-fluoro-2-methylphenoxy)-N-(6-methyl-2-oxo-1,2-dihydropyridin-4-yl)-5-(trifluoromethyl)benzamide], the concentration for half-maximal inhibition (IC50) was determined as 113 nM.
Then `CCCOc1ccccc1Oc1ccc(C(F)(F)F)cc1C(=O)Nc1cc[nH]c(=O)c1` [Compound 62, N-(2-oxo-1,2-dihydropyridin-4-yl)-2-(2-propoxyphenoxy)-5-(trifluoromethyl)benzamide], with 34 nM; and `COc1ccc(Oc2ccc(C(F)(F)F)cc2C(=O)Nc2cc[nH]c(=O)c2)c(C)c1` [Compound 63, 2-(4-methoxy-2-methylphenoxy)-N-(2-oxo-1,2-dihydropyridin-4-yl)-5-(trifluoromethyl)benzamide], with 18 nM.
Then `CC(C)Oc1ccccc1Oc1ccc(C(F)(F)F)cc1C(=O)Nc1cc[nH]c(=O)c1` [Compound 64, 2-(2-isopropoxyphenoxy)-N-(2-oxo-1,2-dihydropyridin-4-yl)-5-(trifluoromethyl)benzamide], with 108 nM.
Then `O=C(Nc1cc[nH]c(=O)c1)c1cc(C(F)(F)F)ccc1Oc1ccccc1Cl` [Compound 65, 2-(2-chlorophenoxy)-N-(2-oxo-1,2-dihydropyridin-4-yl)-5-(trifluoromethyl)benzamide], with 107 nM; and `O=C(Nc1cc[nH]c(=O)c1)c1cc(Cl)ccc1Oc1ccc(F)cc1` [Compound 67, 5-chloro-2-(4-fluorophenoxy)-N-(2-oxo-1,2-dihydropyridin-4-yl)-benzamide], with 69 nM.
Molecule `O=C(Nc1cc[nH]c(=O)c1)c1cc(Cl)ccc1Oc1ccc(F)cc1F` [Compound 69, 5-chloro-2-(2,4-difluorophenoxy)-N-(2-oxo-1,2-dihydropyridin-4-yl)benzamide] came in with a concentration for half-maximal inhibition (IC50) of 112 nM.
With `COc1cc(F)ccc1Oc1ccc(Cl)cc1C(=O)Nc1cc[nH]c(=O)c1` [Compound 70, 5-chloro-2-(4-fluoro-2-methoxyphenoxy)-N-(2-oxo-1,2-dihydropyridin-4-yl)benzamide], 13 nM corresponded to half-maximal inhibition (IC50).
Next, `COc1ccc(Oc2ccc(Cl)cc2C(=O)Nc2cc[nH]c(=O)c2)cc1F` [Compound 71, 5-chloro-2-(3-fluoro-4-methoxyphenoxy)-N-(2-oxo-1,2-dihydropyridin-4-yl)benzamide]: 92 nM.
For the molecule `O=C(Nc1cc[nH]c(=O)c1)c1cc(C(F)(F)F)ccc1Oc1ccc(OC(F)F)cc1` [Compound 73, 2-(4-(difluoromethoxy)phenoxy)-N-(2-oxo-1,2-dihydropyridin-4-yl)-5-(trifluoromethyl)benzamide], the IC50 stood at 35 nM.
Next, `O=C(Nc1cc[nH]c(=O)c1)c1cc(C(F)(F)F)ccc1Oc1ccc(C(F)(F)F)cc1` [Compound 74, N-(2-oxo-1,2-dihydropyridin-4-yl)-5-(trifluoromethyl)-2-(4-(trifluoromethyl)phenoxy)benzamide]: 5180 nM.
